Data set [1] deals with human plasma. Description: Activated partial thromboplastin time (APTT) test on human plasma.
Data set [2] has as its system induced thromboses. Conditions: rats; i.v. and s.c. administration; cited from earlier work.
Data set [3] concerns induced thromboses. Conditions: rats; i.v. and s.c. administration; cited from earlier work. The source holds these as a separate data set.
The conditions of data set [4]: rats, cited from earlier work.
Data set [5] is described as follows: Toxicity studies with repeated assays. To be noted: any animal species; repeated assays over 4 weeks with up to 10 mg/kg subcutaneously.
Data set [6] has as its system platelet aggregation. Kind of data set: Platelet aggregation induced by ADP or collagen. In kind it is cell-based.
The nature of data set [7]: DNA repair test.
Data set [8] concerns the target thrombin (Homo sapiens, UniProt P00734). Description: Activity on thrombin. In kind it is biochemical.
Data set [9] in a line: AMES test.
Data set [10] has as its system arterial thrombosis. Description: Arterial thrombosis induced by electrical stimulation of the left common carotid in rabbits, blood flow rate measured. It is filed as in vivo. Conditions: rabbit; for effect on reduction in carotid blood flow rate: 45 min observation. As for the experimental part:
New Zealand male rabbits weighing 2.7 to 3 kg, obtained from the Lago breeding unit (France) were used. They were housed under standard conditions.
The formation of the thrombus was induced by external electrical stimulation of the left common carotid according to the Hladovec I. et al. method (Experimental arterial thrombosis in rats with continuous registration, Throm. Diathes. Haemor. 1971; 26: 407-410). The rabbits were anaesthetized with pentobarbital at the dose of 30 mg/kg iv. A segment of the left carotid artery was exposed and insulated by a piece of insulating film. Electrodes were inserted under the artery. A partial stricture inducing a 20% reduction in flow rate was made in the artery. The latter was then stimulated with the aid of a 2.5 mA current delivered by a constant current stimulator for 3 minutes. The thrombotic occlusion was evaluated by continuous measurement of the flow rate of blood in the carotid by means of an NARCO electromagnetic flow meter. This measurement was made over an observation period of 45 minutes.
For the treatment, solutions of SR 90107/ORG 31540 and of SR 121787A were prepared immediately before use in a saline solution. The solutions of SR 90107/ORG 31540 were injected by the IV route 5 minutes before induction of thrombosis in a volume of 1 ml/kg. SR 121787A was dadministered by the oral route 2 hours earlier.
The results were calculated and expressed as % reduction in blood flow rate at various times relative to time 0. They are grouped together in FIG. 1.

In data set [11] the test system is induced thromboses. To be noted: rabbits; i.v. and s.c. administration; cited from earlier work.
Data set [12] deals with activated factor X (Xa). Kind of data set: Neutralization of activated factor X (Xa) by antithrombin III. In kind it is biochemical.

Like-named read-outs stand apart in the source and are kept apart here.

Consider “methyl O-(2-deoxy-2-sulphoamino-6-O-sulfo-α-D-glucopyranosyl)-(1→)-O-(β-D-glucopyranosyluronic acid)-(1→4)-O-(2-deoxy-2-sulphoamino-3,6-di-O-sulpho-α-D-glucopyranosyl-(1→4)-O-(2-O-sulpho-Ε-L-idopyranosyl-uronic acid)-(1→4)-2-deoxy-2-sulphoamino-6-O-sulpho-α-D-glucopyranoside [SR 90107/ORG 31540]”, for which the “modification of activated partial thromboplastin time (APTT)” value in [1] is “hardly modifies”. Further, the antithrombotic effects entry in data set [2], in data set [3] and in data set [11] was “demonstrated” in each case. In addition, in [4] (21.7 mg/kg (high dose)), the loss of blood entry was “identical to that observed with 200 units anti-Xa/kg of heparin”. In addition, the “increase of blood loss compared with standard heparin or LMWHs” value in data set [4] is “only slightly increases blood loss”. In [5], the toxicological effect result is on record as “No toxicological effect”. Besides, the “potentiation of platelet aggregation induced by ADP” value in [6] (ADP) was “does not potentiate”. Besides, the “potentiation of platelet aggregation induced by collagen” value in data set [6] (collagen) is recorded as “does not potentiate”. In data set [7], the “mutagenicity in the DNA repair test” value is reported as “not mutagenic”. In addition, the activity on thrombin entry in data set [8] is listed as “completely devoid”. Besides, the “mutagenicity in the AMES test” value in data set [9] is given as “not mutagenic”. Also, the entries for the “effect on reduction in carotid blood flow rate” value in data set [10] (300 nmol/kg IV 5 minutes before induction of thrombosis) and in data set [10] (600 nmol/kg IV 5 minutes before induction of thrombosis) were “no influence” and “reduced it slightly but not significantly”, respectively. In addition, the “catalysis of neutralization of factor Xa by antithrombin III” value in [12] is “can be catalysed”.
As to `CCOC(=O)CCN(c1nc(-c2ccc(/C(N)=N/C(=O)OCC)cc2)cs1)C1CCN(CC(=O)OCC)CC1` [SR 121787A, ethyl N-(1-ethoxycarbonylmethylpiperidin-4-yl)-N-{4-[4-{(N-ethoxycarbonylimino)(amino)methyl}phenyl]thiazol-2-yl}-3-aminopropionate], the “effect on course of the carotid output” value in data set [10] (oral dose 10 mg/kg 2 hours before, sole active ingredient) is on record as “did not significantly modify”. For the same compound, the “effect on drop of the carotid output” value in data set [10] (oral dose 20 mg/kg 2 hours before, sole active ingredient) was “almost completely inhibited”.

Source of the values: patent US6541488B1, “Compositions for treating arterial thrombosis and a factor Xa inhibitor” (Sanofi-Synthelabo, priority 1997, dated 2003).
